Where a name gives a salt, the structure may show the parent alone.

Results on 34 molecules are retold here after US20130172345A1, “1-ACYL-4-(PHENOXY, BENZYLOXY, OR PHENYLAMINO)-1,2,3,4-TETRAHYDROQUINOLINE DERIVATIVES” (KOWA COMPANY, LTD., priority 2007, published 2013).

The test system of this assay is K562 cells, human proerythroblast cells. Nature of the assay: Hemoglobin production in K562 cells (fluorescence of the porphyrin ring). It counts as cell-based. Conditions: 144 h, test compound 6 μM, 3+3 days, non-stimulated state = 100%, read-out: production amount of hemoglobin, % of control (6 μM). The protocol: K562 cells (obtained from ATCC), which are human proerythroblast cells, were seeded at a density of 1×10^5 cells/1 mL on a 24-well plate by using complete medium (RPMI-1640 medium comprising 10% bovine fetal serum). After adding the test compound having 1000× concentration (1 μL), the cells were incubated for three days in a CO2 incubator (37° C., 5% CO2). After exchanging the medium, the cells were further incubated for three days. Then, the cells were collected and counted. After adjusting them to have 3×10^5 cells, the amount of hemoglobin produced in the cells was determined by measuring fluorescence of the porphyrin ring. Specifically, the cells which had been collected by centrifugation were suspended in 2 M oxalic acid solution (500 μL) and boiled for 30 minutes under heating. After cooling the cells, the fluorescence intensity was measured by Fluorescence micro plate reader (Spectra MAX GeminiEM, manufactured by Molecular Devices Corporation) ([…]). When hemoglobin amount in non-stimulated state, i.e., without addition of any compound, was 100%, the production amount of hemoglobin induced by each compound was calculated (% of control).
For the molecule `CC(=O)N1c2cc(F)ccc2[C@H](Oc2ccccc2)C[C@@H]1C` (relative stereo) [Compound 32, cis-1-acetyl-7-fluoro-2-methyl-4-phenoxy-1,2,3,4-tetrahydroquinoline], the activity at 6 µM was 145%.

On to `CC(=O)N1c2c(F)cccc2[C@H](Oc2ccccc2)C[C@@H]1C` (relative stereo) [Compound 33, cis-1-acetyl-8-fluoro-2-methyl-4-phenoxy-1,2,3,4-tetrahydroquinoline], for which the activity at 6 µM was determined as 115%.

As to `CC(=O)N1c2ccc(F)cc2[C@H](Oc2ccccc2)C[C@@H]1C` (relative stereo) [Compound 35, cis-1-acetyl-6-fluoro-2-methyl-4-phenoxy-1,2,3,4-tetrahydroquinoline], the activity at 6 µM worked out at 287%. As to `CC(=O)N1c2cc(F)ccc2[C@H](Nc2cccc(F)c2)C[C@@H]1C` (relative stereo) [Compound 58, cis-1-acetyl-7-fluoro-4-[(3-fluorophenyl)amino]-2-methyl-1,2,3,4-tetrahydroquinoline], the activity at 6 µM came out at 107%. Under `CC(=O)N1c2ccccc2[C@H](Oc2ccc(OCc3ccccc3)cc2)C[C@@H]1C` (relative stereo) [Compound 64, cis-1-acetyl-4-(4-benzyloxyphenoxy)-2-methyl-1,2,3,4-tetrahydroquinoline] stands 113%. Turning to `CC(=O)N1c2ccc(C(N)=O)cc2[C@H](Nc2ccc(NS(C)(=O)=O)cc2)C[C@@H]1C` (relative stereo) [Compound 102, cis-1-acetyl-4-[(4-methanesulfonylaminophenyl)amino]-2-methyl-1,2,3,4-tetrahydroquinoline-6-carboxamide], the activity at 6 µM is 91%. Under `CC(=O)N1c2ccc(C(N)=O)cc2[C@H](Nc2ccc(CC(N)=O)cc2)C[C@@H]1C` (relative stereo) [Compound 106, cis-1-acetyl-4-[(4-carbamoylmethylphenyl)amino]-2-methyl-1,2,3,4-tetrahydroquinoline-6-carboxamide] stands 227%; under `CC(=O)N1c2ccccc2[C@H](Nc2ccccc2C(=O)O)C[C@@H]1C` (relative stereo) [Compound 109, cis-1-acetyl-4-[(2-carboxyphenyl)amino]-2-methyl-1,2,3,4-tetrahydroquinoline], 229%. Under `CC(=O)N1c2ccccc2[C@H](Nc2ccc(Cc3ccccc3)cc2)C[C@@H]1C` (relative stereo) [Compound 112, cis-1-acetyl-4-[(4-benzylphenyl)amino]-2-methyl-1,2,3,4-tetrahydroquinoline] stands 139%; under `COc1ccc2c(c1)C(Nc1ccc(F)cc1)CC(C)N2C(C)=O` (stereo not shown) [Compound 37, 1-acetyl-4-[(4-fluorophenyl)amino]-2-methyl-6-methoxy-1,2,3,4-tetrahydroquinoline], 494%. Under `COc1ccc2c(c1)N(C(C)=O)C(C)CC2Nc1ccccc1` (stereo not shown) [Compound 48, 1-acetyl-2-methyl-7-methoxy-4-phenylamino-1,2,3,4-tetrahydroquinoline] stands 139%; under `CCC1CC(Nc2ccccc2)c2ccccc2N1C(C)=O` (stereo not shown) [Compound 59, 1-acetyl-2-ethyl-4-phenylamino-1,2,3,4-tetrahydroquinoline], 108%; under `CC(=O)N1CC(C)(C)C(Nc2ccccc2)c2ccccc21` (stereo not drawn) [Compound 60, cis-1-acetyl-3,3-dimethyl-4-phenylamino-1,2,3,4-tetrahydroquinoline], 113%. As for `COc1cccc2c1N(C(C)=O)C(C)CC2Nc1ccccc1` (stereo not shown) [Compound 61, 1-acetyl-4-phenylamino-8-methoxy-2-methyl-1,2,3,4-tetrahydroquinoline], the activity at 6 µM worked out at 132%. The same measure for `CC(=O)N1c2c(Br)cccc2C(Nc2ccccc2)CC1C` (stereo not shown) [Compound 63, 1-acetyl-8-bromo-4-phenylamino-2-methyl-1,2,3,4-tetrahydroquinoline]: 98%; for `CC1CC(Nc2ccc(F)cc2)c2cc(F)ccc2N1C(=O)C1CCCC1` (stereo not shown) [Compound 66, 1-cyclopentanecarbonyl-6-fluoro-2-methyl-4-[(4-fluorophenyl)amino]-1,2,3,4-tetrahydroquinoline]: 151%; for `CC(=O)N1c2ccccc2C(Oc2ccc([N+](=O)[O-])cc2)CC1C` (stereo not shown) [Compound 67, 1-acetyl-2-methyl-4-(4-nitrophenoxy)-1,2,3,4-tetrahydroquinoline]: 119%.

Regarding `CC(=O)N1c2ccccc2C(Oc2ccc(N)cc2)CC1C` (stereo not shown) [Compound 68, 1-acetyl-4-(4-aminophenoxy)-2-methyl-1,2,3,4-tetrahydroquinoline], the activity at 6 µM came out at 154%. The same measure for `CC(=O)N1c2ccc(NCCO)cc2C(Nc2ccc(Cl)cc2)CC1C` (stereo not shown) [Compound 82, 1-acetyl-4-[(4-chlorophenyl)amino]-6-[(2-hydroxy)ethylamino]-2-methyl-1,2,3,4-tetrahydroquinoline]: 325%; for `CC(=O)N1c2ccc(N3CC(C)OC(C)C3)cc2C(Nc2ccc(Cl)cc2)CC1C` (stereo not drawn) [Compound 83, 1-acetyl-4-[(4-chlorophenyl)amino]-6-[(cis-3,5-dimethyl)morpholino]-2-methyl-1,2,3,4-tetrahydroquinoline]: 282%; for `CC(=O)N1c2ccc(N3CCN(C(=O)C(C)C)CC3)cc2C(Nc2ccc(Cl)cc2)CC1C` (stereo not shown) [Compound 84, 1-acetyl-4-[(4-chlorophenyl)amino]-6-[(4-isopropylcarbonyl)piperazino]-2-methyl-1,2,3,4-tetrahydroquinoline]: 286%. Under `CC(=O)N1c2ccc(N3CCN(C(=O)c4ccccc4)CC3)cc2C(Nc2ccc(Cl)cc2)CC1C` (stereo not shown) [Compound 86, 1-acetyl-6-[(4-benzoyl)piperazino]-2-methyl-4-[(4-chlorophenyl)amino]-1,2,3,4-tetrahydroquinoline] stands 237%.

On to `CCN(CC)C(=O)N1CCN(c2ccc3c(c2)C(Nc2ccc(Cl)cc2)CC(C)N3C(C)=O)CC1` (stereo not shown) [Compound 87, 1-acetyl-4-[(4-chlorophenyl)amino]-6-[4-(N,N-diethylaminocarbonyl)piperazino]-2-methyl-1,2,3,4-tetrahydroquinoline], for which the activity at 6 µM stood at 262%. Turning to `CC(=O)N1c2ccc(N3CCN(C(=O)NC(C)C)CC3)cc2C(Nc2ccc(Cl)cc2)CC1C` (stereo not shown) [Compound 88, 1-acetyl-4-[(4-chlorophenyl)amino]-6-[4-(isopropylaminocarbonyl)piperazino]-2-methyl-1,2,3,4-tetrahydroquinoline], the activity at 6 µM was found to be 112%. As for `CC(=O)N1c2ccc(N3CCOCC3)cc2C(Nc2ccc(CC(=O)O)cc2)CC1C` (stereo not shown) [Compound 89, 1-acetyl-4-[(4-carboxymethylphenyl)amino]-6-morpholino-2-methyl-1,2,3,4-tetrahydroquinoline], the activity at 6 µM amounted to 154%.

For the molecule `CC(=O)N1c2ccc(N3CCOCC3)cc2C(Nc2ccc(CC(N)=O)cc2)CC1C` (stereo not shown) [Compound 90, 1-acetyl-4-[(4-carbamoylmethylphenyl)amino]-2-methyl-6-morpholino-1,2,3,4-tetrahydroquinoline], the activity at 6 µM stood at 241%.

As for `CC(=O)N1CCN(c2ccc3c(c2)C(Nc2ccc(CC(=O)O)cc2)CC(C)N3C(C)=O)CC1` (stereo not shown) [Compound 91, 1-acetyl-6-(4-acetylpiperazinyl)-4-[(4-carboxymethylphenyl)amino]-2-methyl-1,2,3,4-tetrahydroquinoline], the activity at 6 µM came to 130%.

As for `CC(=O)N1c2ccc(C(=O)N3CCOCC3)cc2C(Nc2ccc(Cl)cc2)CC1C` (stereo not shown) [Compound 93, 1-acetyl-4-[(4-chlorophenyl)amino]-6-[(1-morpholino)carbonyl]-2-methyl-1,2,3,4-tetrahydroquinoline.hydrochloride], the activity at 6 µM was 245%. Under `CC(=O)N1CCN(c2ccc3c(c2)C(Nc2ccc(N4CCOCC4)cc2)CC(C)N3C(C)=O)CC1` (stereo not drawn) [Compound 94, cis-1-acetyl-6-[(4-acetyl)piperazino]-2-methyl-4-[(4-morpholinophenyl)amino]-1,2,3,4-tetrahydroquinoline.3 hydrochloride] stands 199%; under `CC(=O)Nc1ccc2c(c1)C(Nc1ccc(Cl)cc1)CC(C)N2C(C)=O` (stereo not shown) [Compound 96, 1-acetyl-6-acetylamino-4-[(4-chlorophenyl)amino]-2-methyl-1,2,3,4-tetrahydroquinoline], 530%. Under `CC(=O)N1c2ccc(NS(C)(=O)=O)cc2C(Nc2ccc(N3CCOCC3)cc2)CC1C` (stereo not shown) [Compound 98, 1-acetyl-6-methanesulfonylamino-2-methyl-4-[(4-morpholinophenyl)amino]-1,2,3,4-tetrahydroquinoline] stands 56%. The same measure for `CCOC(=O)Cc1ccc(NC2CC(C)N(C(C)=O)c3ccc(NS(C)(=O)=O)cc32)cc1` (stereo not shown) [Compound 99, 1-acetyl-6-methanesulfonylamino-2-methyl-4-[(4-ethoxycarbonylmethylphenyl)amino]-1,2,3,4-tetrahydroquinoline]: 69%; for `CC(=O)N1c2ccc(C(=O)O)cc2C(Nc2ccc(F)cc2)CC1C` (stereo not shown) [Compound 100, 1-acetyl-4-[(4-fluorophenyl)amino]-2-methyl-1,2,3,4-tetrahydroquinoline-6-carboxylic acid]: 105%; for `CCOC(=O)c1ccc2c(c1)C(Nc1ccc(NS(C)(=O)=O)cc1)CC(C)N2C(C)=O` (stereo not shown) [Compound 101, ethyl 1-acetyl-4-[(4-methanesulfonylaminophenyl)amino]-2-methyl-1,2,3,4-tetrahydroquinoline-6-carboxylate]: 508%.
